The results in this text go back to patent US20240108740A1, “THERAPEUTIC COMPOSITIONS INCLUDING SPN10 AND USES THEREOF” (Stealth BioTherapeutics Inc., priority 2022, published 2024).

Residues, ends and D or L forms follow the SMILES beside them.

For experiment [1], the system named is N2A cells. The experiment in a line: Example 26: mitochondrial membrane potential and ROS accumulation after t-BHP (TMRM, DCF). The experiment is classed as cell-based. The conditions noted are these: 0.1 mM t-BHP, 6 hours. The protocol: N2A cells cultured in a glass dish will be treated with 0.1 mM t-BHP alone or in the presence of peptide conjugates (1 nM); aromatic-cationic peptides (an equivalent molar dose of aromatic-cationic peptide based on the concentration of the aromatic-cationic peptide administered in the peptide conjugate treatment group); SPN10(s) (an equivalent molar dose of SPN10 based on the concentration of SPN10 administered in the peptide conjugate treatment group) or SPN10(s) in combination with aromatic-cationic peptides (e.g., an equivalent molar dose of SPN10 based on the concentration of SPN10 administered in the peptide conjugate treatment group and an equivalent molar dose of aromatic-cationic peptide based on the concentration of aromatic-cationic peptide administered in the peptide conjugate treatment group) for 6 hours. Cells will then be loaded with 10 μM dichlorofluorescin (DCF) (ex/em=485/530) for 30 minutes at 37° C., 5% CO2. Cells will be washed 3 times with HBSS, stained with 20 nM of Mitotracker TMRM (ex/em=550/575 nm) for 15 minutes at 37° C., and examined by confocal laser scanning microscopy.

Experiment [2] concerns rat model of radiocontrast dye-induced renal failure. The experiment in a line: Example 39: radiocontrast dye-induced renal failure. The experiment is classed as in vivo. The protocol: Animal Model: A rat model of radiocontrast dye-induced renal failure as described by Agmon, et al., J. Clin. Invest. 94:1069-1075 (1994) will be used. As in humans, radiocontrast dyes are generally non-toxic when administered to animals with normal renal function. However, radiocontrast dyes can induce ARI in animals with impaired renal function. In this model, impaired renal function will be induced by the administration of indomethacin (10 mg/kg) and L-NAME (10 mg/kg). Animals will be assigned to one of the following groups:
2. Indomethcin and L-NAME administered 15 minutes apart, followed by iothalamate (6 mL/kg) (n=7)
3. peptide conjugates (3 mg/kg, i.p.) administered 15 minutes prior to indomethacin/L-NAME/iothalamate administration as described in Group 2; second dose of peptide conjugates (3 mg/kg) administered immediately after drug exposure (n=9).
4. aromatic-cationic peptides (an equivalent molar dose of aromatic-cationic peptide based on the concentration of the aromatic-cationic peptide administered in the peptide conjugate treatment group) administered 15 minutes prior to indomethacin/L-NAME/iothalamate administration as described in Group 2; second dose of aromatic-cationic peptides (an equivalent molar dose of aromatic-cationic peptide based on the concentration of the aromatic-cationic peptide administered in the peptide conjugate treatment group) administered immediately after drug exposure (n=9).
5. […]
Renal Function: Renal function will be assessed by determining GFR at baseline and 24 hours following dye administration. GFR will be determined by creatinine clearance which will be estimated over a 24 hour interval before and after dye administration. Creatinine clearance will be analyzed by measuring plasma and urinary creatinine levels (Bioassay Systems; DICT-500) and urine volume.
Renal Histology: Kidneys will be fixed in 10% neutral-buffered formalin and embedded in paraffin wax for sectioning. Three-micron sections will be stained with hematoxylin-eosin (H&E) and periodic acid-Schiff (PAS) and analyzed by light microscopy by a board certified pathologist. […]

Experiment [3] deals with wild-type (WT) mice, middle cerebral artery occlusion. Kind of experiment: Cerebral ischemia, no-reflow zone in the brain. The experiment is classed as in vivo, mouse. The conditions noted are these: i.p. at 0, 6, 24 and 48 hours after ischemia. The protocol:
Cerebral ischemia initiates a cascade of cellular and molecular events that lead to brain damage. One such event is an anatomic zone of no-reflow. Cerebral ischemia will be induced by occlusion of the right middle cerebral artery for 30 minutes. Wild-type (WT) mice will be given either saline vehicle (Veh), peptide conjugate, aromatic-cationic peptide, SPN10, SPN10 and aromatic-cationic peptide (2-5 mg/kg for the peptide conjugate and equivalent molar doses of aromatic-cationic peptide and/or SPN10 based on concentration of the aromatic-cationic peptide or SPN10 administered in the peptide conjugate group) i.p. at 0, 6, 24 and 48 hours after ischemia. Mice will be sacrificed 3 days after ischemia, and the brains sliced transversely into 6-8 sections. Sections will be photographed under ultraviolet light to identify the region of no-reflow. The areas of no-reflow in each slice will be digitized using Image J (supplier Rasband WS, Image J, National Institutes of Health, http://rsb.info.nih.gov/ij/). The areas in each slice will be multiplied by the weight of the slice and the results will be summed in order to obtain the mass of the no-reflow areas.

With `N=C(N)NCCC[C@H](NC(=O)[C@@H](N)Cc1c[nH]c2ccccc12)C(=O)N[C@@H](Cc1c[nH]c2ccccc12)C(=O)N[C@@H](CCCCN)C(N)=O` [SPN10, H-L-Trp-L-Arg-L-Trp-L-Lys-NH2] (H-WRWK-NH2), in experiment [1], the “ROS accumulation (DCF)” value is on record as “reduce ROS accumulation” and the “mitochondrial depolarization (TMRM)” value is reported as “prevent mitochondrial depolarization”. Besides, in experiment [2] (TUNEL), the “number of apoptotic cells in contrast dye-exposed kidneys” value is “reduce the number of apoptotic cells”. Moreover, the “loss of renal brush border and vacuolization (PAS)” value in experiment [2] (contrast dye-exposed kidneys) was “attenuated”. Moreover, the “decline in renal function (GFR) after contrast dye” value in experiment [2] (indomethacin, L-NAME, iothalamate, treatment before and after dye) is on record as “reduce the decline in renal function”. Further, in experiment [3], the “anatomic zone of no-reflow in the brain” value is reported as “prevent or reduce” and the infarct volume result is reported as “significant reduction”.
